Assay results taken from US20230332103A1, “Methods and Compositions for Generating Human Forebrain Neural Progenitor Cells and for Maturation Thereof to Parvalbumin+ Interneurons” (Trailhead Biosystems Inc., priority 2021, published 2023).
Entries after “also recorded” stand apart in the source; their conditions may differ.

Legend:
[1] = test system: cells after termination of stage 4 treatment; assay: HD-DoE 8-factor experiment for stage 5 recipe (JQ1, Indolactam-V, Oleic acid, BDNF, IGF-1, 2-phospho-L-Ascorbic acid, Albumax, MK2206), optimized for PVALB; format: cell-based, human; settings: for factor contribution on expression of PVALB: important input for maximum expression of PVALB, FIG. 21; for impact on expression of PVALB: model maximized for PVALB / dynamic profile, FIG. 21 and 22
Text: To further guide the differentiation of forebrain-committed neural stem cells to PVALB interneuron cells at stage 5, we performed a HD-DoE experiment for 3 days after termination of stage 4 treatment. At this time, we focused on maximum expression of PVALB that was expressed in Parvalbumin (+) interneurons and minimum expression of Somatostatin that is another type of interneurons. This 8-factor experiment included JQ1, Indolactam-V, Oleic acid, BDNF, IGF-1, 2-phospho-L-Ascorbic acid, Albumax, MK2206. […] Using dynamic profile analysis, we modified the model to achieve the maximum expression level of PVALB simultaneously and therefore 2-phospho-L-ascorbic acid, BDNF, IGF1 were included while MK2206, Albumax, and JQ1 are excluded (FIG. 22). Considering the model at different optimization settings for maximum differentiation of cells toward ventral forebrain, the recipe for stage 5 of differentiation included BDNF, IGF-1, 2-phospho-L-ascorbic acid from this HD-Doe experiment.

[2] = test system: stage 4 neural stem cells; assay: factor criticality analysis of stage 5 recipe; format: cell-based, human; settings: for effect on expression of somatostatin: FIG. 28; for contribution to expression of PVALB (Parvalbumin): FIG. 28-30
Experimental: To assess the impact of elimination of each validated factor, we again used dynamic profile analysis and compared the expression level of genes of interest in the absence of each finalized factor while others are present.
In the stage 5 recipe, each of seven finalized factors were removed while other factors were kept present and expression levels of PVALB and SST were assessed compared to the presence of all seven factors. […] 2-phospho-L-ascorbic acid, BDNF, IGF-1 were included in the stage 5 recipe (FIG. 28). […] Others were also found to increase the expression of somatostatin that was SST interneuron marker. So, they are excluded from the recipe and N2 was included in the stage 5 recipe (FIG. 29). […] Sodium pyruvate was included in the stage 5 recipe (FIG. 30).

[3] = test system: human pluripotent stem cells; assay: HD-DoE 12-factor experiment for stage 1 recipe, gene expression by quantitative PCR after 3 days; format: cell-based; settings: for factor contribution on expression of OTX2: model of maximum expression of OTX2
Text: This example utilizes a method of High-Dimensional Design of Experiments (HD-DoE), as previously described in Bukys et al. (2020) […] 23:101346. The method employs computerized design geometries to simultaneously test multiple process inputs and offers mathematical modeling of a deep effector/response space. The method allows for finding combinatorial signaling inputs that control a complex process, such as during cell differentiation. It allows testing of multiple plausible critical process parameters, as such parameters impact output responses, such as gene expression. Because gene expression provides hallmark features of the phenotype of, for example, a human cell, the method can be applied to identify, and understand, which signaling pathways control cell fate. In the current example, the HD-DOE method was applied with the intent to find conditions for induction of […] neural progenitor-expressed genes, directly from the pluripotent stem cell state. To develop the recipe for each stage, the impact of agonists and antagonists of multiple signaling pathways (herein called effectors) on the expression of two sets of 53 pre-selected genes, after a 3-day treatment, has been tested and modeled. These effectors are small molecules or proteins that are commonly used during stepwise differentiation of stem cells to specific fates. Choice of the effectors were based on current literature on neural induction in forebrain region of developing brain and differentiation of stem cells to neural progenitors. To test the effectors, experiments with at least 8 factors were designed that can assess the response of cells to 48 or more different combinations of effectors in a range of concentrations. To analyze the models, we focused on expression of genes involved in development and patterning of the anterior neuroectoderm and forebrain including OTX2 (Hoch et al. (2015) Cell Reports 12:482-494), SIX3 (Lagutin et al. (2003) Genes & Development 17:368-379) and FEZF2 (Zhang et al. (2014) Development 141:4794-[…]). At later stages we focused on dorsoventral patterning of telencephalon and gene expressed in ventral forebrain including NKX2-1 and absence of PAX6 which is a dorsal forebrain marker (Stoykova et al. (2000) J. Neurosci. 20:8042-8050). The impact of each effector on gene expression level is defined by a parameter called factor contribution that is calculated for each effector during the modeling. To identify the recipe for stage 1 of differentiation, 96 different combinations of effectors generated using Design-of-Experiments compression through D-optimality were robotically prepared. The effector combinations were prepared in a basal media and were subsequently added to the cells, which were then allowed to differentiate. Three days later RNA extraction was performed, and gene expression was obtained using quantitative PCR analysis. […] Solutions within the tested space could then be explored to address desirability. Optimizing for maximal expression of SIX3 at 3300 and FEZF2 1355 expression values led to robust solutions. This model was derived from testing 12 effectors including AGN193109, LDN193189, CHIR99021, XAV939, IGF2, Purmorphamine, 4-oxo-RA, TTNPB, SR11237, FGF8, PD0325901 and […]. […] The model was also optimized for maximum expression of FEZF2 separately at 3576 expression value to find any additional factors that can boost expression of forebrain genes. […] To find the set of factors that have the potential to optimize all 3 genes in this experiment, a new assessment was done through dynamic profile analysis with focus on maximal expression of OTX2, FEZF2 and SIX3.

[4] = test system: human pluripotent stem cells; assay: additional HD-DoE experiment for stage 1 (forebrain differentiation from pluripotency), optimized for FEZF2; format: cell-based; settings: for impact on expression of FEZF2: dynamic profile, FIG. 6; for factor contribution on expression of FEZF2: positive impact, additional stage 1 experiment optimized for FEZF2, FIG. 5
Experimental: To identify the recipe for stage 1 of differentiation, 96 different combinations of effectors generated using Design-of-Experiments compression through D-optimality were robotically prepared. The effector combinations were prepared in a basal media and were subsequently added to the cells, which were then allowed to differentiate. Three days later RNA extraction was performed, and gene expression was obtained using quantitative PCR analysis. The data were normalized and modeled using partial least squares regression analysis to the effector design, resulting in the generation of gene-specific models, which after model tuning for maximal Q2 predictive power, provided explanation of the effectors ability to control the expression of individual genes, combinatorially, and individually. Solutions within the tested space could then be explored to address desirability.
To further enhance the conditions for forebrain differentiation from pluripotency, an additional HD-DoE experiment was performed. Additional gene regulatory models were obtained that were used for preparation of the differentiation protocol. The factors in this experiment included LDN193189, PD173074, BLU9931, Purmorphamine, SC79, MK2206, ZM336372, PD0325901, CHIR99021, XAV939, UCLA-GP130, Tofacitinib and GO6983. […] Dynamic profile analysis was also used to assess the interaction between the effectors.

[5] = test system: forebrain-committed neural stem cells (stage 1 neural stem cells); assay: HD-DoE 12-factor experiment for stage 2 recipe, optimized for NKX2-1; format: cell-based, human; settings: model maximized for NKX2-1 / dynamic profile, FIG. 7 and 8
Experimental: To further guide the differentiation of forebrain-committed neural stem cells to ventral forebrain neural stem cells at stage 2, a HD-DoE experiment was performed for 3 days after termination of stage 1 treatment. At this time, we focused on maximum expression of NKX2-1 that is expressed in ventral forebrain region and minimum expression of PAX6 that is expressed in dorsal forebrain region. This 12-factor experiment included LDN193189, BMP7, PD0325901, MK2206, A8301, XAV939, CHIR99021, Purmorphamine, SANT-1, AGN193109, TTNPB and GSI-XX.

[6] = test system: human pluripotent stem cells; assay: factor criticality analysis (dynamic profile analysis) of stage 1 recipe; format: cell-based; set-up: unit not given here; settings: other five factors present; for expression level of FEZF2 when the effector is removed: 2000 with all six factors; for expression level of SIX3 when the effector is removed: 3000 with all six factors; for expression level of OTX2 when the effector is removed: 5500 with all six factors
Experimental: (§1) To assess the impact of the elimination of each validated factor, dynamic profile analysis was used and compared the expression level of genes of interest in absence of each finalized factor while others are present.
In the stage 1 recipe, each of the six finalized factors were removed individually while the other five factors were present and expression levels of forebrain genes was assessed compared to the presence of all six factors together. The results are summarized in FIG. 11A-B. When LDN193189 was removed, expression levels of FEZF2, OTX2 and SIX3 were decreased drastically from 2000 to 1000, 5500 to 4000 and 3000 to 0, respectively. […] When Purmorphamine was removed, levels of FEZF2 and SIX3 were decreased to 1000 and below 3000, while levels of OTX2 increased to 6500.

[7] = test system: forebrain-committed neural stem cells (stage 1 neural stem cells); assay: factor criticality analysis (dynamic profile analysis) of stage 2 recipe; format: cell-based, human; settings: stage 2 recipe, other three factors present; for expression level of PAX6 in the absence of the effector: 0 with all four factors; for expression level of NKX2-2 in the absence of the effector: 100 with all four factors; for expression level of NKX2-1 in the absence of the effector: 5000 with all four factors
Experimental: as §1
In the stage 2 recipe, each of the four finalized factors were removed while the other three factors remained present and expression levels of NKX2-1, PAX6 and NKX2-2 were assessed compared to presence of all four factors. The results are summarized in FIG. 13A-B. Absence of PD0325901 reduced the levels of NKX2-1 and NKX2-2 while increasing PAX6 from 5000 to 3200, 100 to 0 and 0 to 5000, respectively. […] Removing XAV939 reduced the levels of NKX2-1 from 5000 to 3000, while increasing both PAX6 and NKX2-2 to 10000 and 200, respectively. Another observation was the interaction between XAV939 and Purmorphamine. In the absence of XAV939, the impact of Purmorphamine on NKX2-1 became negative and, as it is shown in interaction plot of FIG. 14, the level of NKX2-1 is higher when both factors are present.

Molecule: O=C1O[C@H]([C@@H](O)CO)C(O)=C1OP(=O)(O)O [2-phospho-L-ascorbic acid]
- factor contribution on expression of PVALB [1]: 15.04
- impact on expression of PVALB [1]: increase its expression level
- impact on expression of PVALB ([1]; listed as 2-phospho-L-Ascorbic acid): positive impact
- effect on expression of somatostatin [2]: did not change
- contribution to expression of PVALB (Parvalbumin) [2]: positive contribution

Molecule: CC(C)[C@H]1C(=O)N[C@H](CO)Cc2c[nH]c3cccc(c23)N1C [Indolactam-V]
- impact on expression of PVALB [1]: increase its expression level; also recorded: positive impact

Molecule: CCCCCCCC/C=C\CCCCCCCC(=O)OC[C@@H](O)COP(=O)(O)O [O-LPA, 1-Oleoyl lysophosphatidic acid]
- contribution to expression of GAD1 ([2]; FIG. 31): contribute to the expression
- contribution to expression of LHX6 ([2]; FIG. 31): contribute to the expression

Molecule: CCCCCCCC/C=C\CCCCCCCC(=O)O [Oleic acid]
- impact on expression of PVALB [1]: increase its expression level; also recorded: positive impact

Molecule: O=C(NOC[C@H](O)CO)c1ccc(F)c(F)c1Nc1ccc(I)cc1F [PD0325901]
- factor contribution on expression of OTX2 ([3]; positive impact): low
- factor contribution on expression of FEZF2 ([3]; positive impact, model optimized for maximum expression of FEZF2): 10
- impact on expression of FEZF2 [4]: positive impact
- factor contribution on expression of FEZF2 [4]: 15
- impact on expression of NKX2-1 [5]: increase its expression level; also recorded: Positive impact
- expression level of FEZF2 when the effector is removed [6]: drop
- expression level of SIX3 when the effector is removed [6]: did not have a significant impact
- expression level of OTX2 when the effector is removed [6]: did not have a significant impact
- expression level of PAX6 in the absence of the effector [7]: 5000
- expression level of NKX2-2 in the absence of the effector [7]: 0
- expression level of NKX2-1 in the absence of the effector [7]: 3200

Molecule: Oc1nc(-c2ccc(C(F)(F)F)cc2)nc2c1CSCC2 [XAV939]
- impact on expression of OTX2 ([3]; dynamic profile analysis, FIG. 4): positive impact
- factor contribution on expression of OTX2 ([3]; positive impact): low
- factor contribution on expression of SIX3 ([3]; positive impact, model optimized for maximal expression of SIX3, 3-day treatment): 5
- impact on expression of FEZF2 [4]: positive impact
- factor contribution on expression of FEZF2 [4]: 12
- impact on expression of NKX2-1 [5]: increase its expression level; also recorded: Positive impact
- expression level of FEZF2 when the effector is removed [6]: 1700
- expression level of SIX3 when the effector is removed [6]: 1000
- expression level of OTX2 when the effector is removed [6]: 5000
- expression level of PAX6 in the absence of the effector [7]: 10000
- expression level of NKX2-2 in the absence of the effector [7]: 200
- expression level of NKX2-1 in the absence of the effector [7]: 3000

B1: BDNF: brain-derived neurotrophic factor, ligand of BDNFR signaling pathway (protein, UniProt P23560 19-247, looked up)
Neurotrophic factor BDNF …: APMKEANIRGQGGLAYPGVRTHGTLESVNGPKAGSRGLTSLADTFEHVIEELLDEDQKVRPNEENNKDADLYTSRVMLSSQVPLEPPLLFLLEEYKNYLDAANMSMRVRRHSDPARRGELSVCDSISEWVTAADKKTAVDMSGGTVTVLEKVPVSKGQLKQYFYETKCNPMGYTKEGCRGIDKRHWNSQCRTTQSYVRALTMDSKKRIGWRFIRIDTSCVCTLTIKRGR
- factor contribution on expression of PVALB [1]: 14.6
- impact on expression of PVALB [1]: increase its expression level; also recorded: positive impact
- effect on expression of somatostatin [2]: did not change
- contribution to expression of PVALB (Parvalbumin) [2]: positive contribution
